In the METLIN SMRT retention time set (Domingo-Almenara et al. 2019):

assay: gradient 5% acetonitrile 3 min, to 50% in 2 min, to 85% in 15 min, held 3 min, 100 µL/min; conditions: column: Zorbax Extend-C18 2.1 x 50 mm; eluents: water / acetonitrile, 0.1% formic acid
Outline: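 The mobile phases were water and acetonitrile, each with 0.1% formic acid, pumped at 100 μL/min through a Zorbax Extend-C18 column (2.1 × 50 mm, 1.8 μm). Pure standards were injected as mixtures of ~100 molecules and detected by a quadrupole time-of-flight mass spectrometer in positive and negative ionization mode. Retention time came from computationally picked adduct peaks, each inspected by hand.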

| SMILES | RP-LC retention time [s] |
| --- | --- |
| O=C(O)c1nnn(-c2ccc(C(F)(F)F)cc2)c1C(F)(F)F | 824 |
| COc1cccc(C#N)c1OCC(N)=O | 592 |
| Cc1cc(N2CCN(c3ccccc3)CC2)n2nc(-c3cccnc3)nc2n1 | 863 |
| Cc1ccc(CNS(=O)(=O)c2ccc(-c3c(C)noc3C)cc2)cc1 | 996 |
| COC(=O)c1ccc2c(=O)n(-c3ccc4c(c3)OCO4)c(N3CCCCC3)nc2c1 | 1080 |
| CC1CCN(C(=O)Cn2nc(C(=O)N3CCCC3)c3ccccc32)CC1 | 846 |
| CC(C)c1nnc(-c2coc(S(=O)(=O)N3CCN(C4CCCCC4)CC3)c2)o1 | 644 |
| Cc1cc(C)cc(Nc2nc3ccncc3n(Cc3ccccc3)c2=O)c1 | 817 |
| COCCn1nnnc1C1CC2(CCOCC2)C(=O)N1CCc1ccc(OC)c(OC)c1 (stereo not given) | 685 |
| CC(=O)N1CCc2sc(C(=O)N3CCN(c4cc(C)ccc4C)CC3)cc2C1 | 904 |
| Cc1ccc(CNC(=O)N(C)CC2CCOCC2)cc1 | 713 |
| COc1ccc(OC)c(C(O)CN2CCN(c3cc(C)ccc3C)CC2)c1 (stereo not given) | 758 |
| Cc1cnc(-c2ccccc2)n1CCNS(=O)(=O)N(C)C | 572 |
| Cc1sc(-c2cc(C(F)(F)F)on2)cc1S(=O)(=O)N1CCN(c2cccc(Cl)c2)CC1 | 1440 |
| CCc1ccc(C(=O)c2cnc3cc4c(cc3c2N2CCN(CC)CC2)OCO4)cc1 | 608 |
| O=C(Cc1csc2nc(-c3ccccc3)cn12)NCCC1=CCCCC1 | 864 |
| CN(C)[C@@H]1CN(Cc2cccc(C#N)c2)C[C@H]1CO | 518 |
| Cc1nc(CCNC(=O)Cc2ccsc2)no1 | 640 |
| CCNc1cc(N2CCC(CCC(=O)N3CCC(C)CC3)CC2)ncn1 | 548 |
| CCn1c(SC)nnc1-c1nn(C)c2c1CN(C(=O)CCc1ccccc1)CC2 | 798 |
| CCCCN(C)C(=O)Cn1c(=O)c(S(=O)(=O)c2ccccc2)cc2ccccc21 | 893 |
| CC(C)c1ccc(S(=O)(=O)c2cnc(N3CCN(C4CCCCC4)CC3)nc2N)cc1 | 767 |
| CCc1noc(C2(NC(=O)c3nccc4ccccc34)CCCCC2)n1 | 1060 |
| COc1ccc(CN(CCC2(C(C)C)CCOC(C)(C)C2)C(C)=O)cc1OC (stereo not given) | 864 |

| SMILES | RP-LC retention time [s] |
| --- | --- |
| Cn1cc(-c2cc3n(n2)CCCN3C(=O)CCC(=O)N2CCN(c3ccccn3)CC2)c2ccccc21 | 621 |
| Cc1sc(-c2nnc(C3CC3)o2)cc1NC(=O)Cc1c[nH]c2ccccc12 | 877 |
| CCN1CCN(C(=O)c2c(C)sc3ccn(CC(C)C)c(=O)c23)CC1 | 598 |
| CCCN1C(=O)COc2ccc(-c3csc(NC(=O)c4cc(OC)c(OC)c(OC)c4)n3)cc21 | 1040 |
| CCN(CC)C(=O)NCCc1noc(COC)n1 | 626 |
| Cc1ccc2c(Nc3ccc4c(c3)OCCO4)c(C(=O)N3CCCCC3C)cnc2n1 (stereo not given) | 623 |
| CC(C(=O)N1CCN(c2ccccn2)CC1)n1ccc2cc(S(=O)(=O)N3CCCC3)ccc21 (stereo not given) | 660 |
| Cc1nnc2ccc(-c3noc(Cc4ccc(Cl)cc4)n3)cn12 | 868 |
| CN(CC(=O)Nc1c2c(nc3c1CCC3)CCCC2)Cc1ccccc1 | 562 |
| CCN1CCC(n2cc(CNc3cc(Cl)c4ncc(C#N)c(Nc5ccc(F)c(Cl)c5)c4c3)nn2)CC1 | 727 |
| CCCCNC(=O)CCc1c(C)n(C)c2nc(-c3ccccc3)nn2c1=O | 706 |
| c1nc(N2CCOCC2)c2cn[nH]c2n1 | 340 |
| CNC(=O)c1ccc(N2C(=S)N(c3cnc(C#N)c(C(F)(F)F)c3)C(=O)C23CCC3)cc1F | 993 |
| O=C1CC(c2cc(F)cc(F)c2)Cc2nc(N3CCN(c4ccccc4F)CC3)ncc21 (stereo not given) | 1300 |
| COCc1ccc(C(=O)Nc2nnc(C)s2)o1 | 595 |
| Cc1cccc(CN2CC=C(C(=O)N3CCN(c4cccc(C)c4)CC3)CC2)c1 | 706 |
| COc1ccc(-c2cn3c(CC(=O)N4CCc5ccccc54)csc3n2)cc1OC | 748 |
| CCN1C(SCC(=O)N2CCCC2)=NS(=O)(=O)c2ccccc21 | 684 |
| Cc1nc(-c2cc(S(=O)(=O)NCc3cc(F)cc(F)c3)c(C)s2)cs1 | 994 |
| CCOC(=O)Cn1cc(S(=O)(=O)N2CCCC2)ccc1=O | 696 |
| CC1(C(=O)NCc2ccccc2)CCCN(C(=O)NC2CCCCC2)C1 (stereo not given) | 857 |
| Cc1cccc(OCc2nc(C)c(C(=O)Nc3nc(-c4ccc(C)c(C)c4)cs3)s2)c1 | 1410 |
| CCn1ccc(C(=O)N2CCN(C(=O)N3C[C@H]4C[C@H](C3)[C@H]3CCCC(=O)N3C4)CC2)n1 | 609 |

The next lines start with the values.

| RP-LC retention time [s] | SMILES |
| --- | --- |
| 640 | CC(=O)Nc1cc(C(=O)NCc2ccc(OC(C)C)cc2)c2ccc(C)nc2c1 |
| 775 | COc1ccc(CNC2=NCCNC23CCN(S(=O)(=O)c2ccc(C)cc2C)CC3)cc1 |
| 580 | CN(C)C(=O)CN1CCN(c2cc(C(=O)O)c3cc(NC(=O)c4ccccc4F)ccc3n2)CC1 |
| 632 | O=C(NC1CC(=O)N(Cc2ccccc2)C1)c1cnccn1 (stereo not given) |
| 800 | Cc1ccccc1CN1CC(=O)N(c2ccccc2)[C@@H]2CS(=O)(=O)C[C@@H]21 |
| 857 | CCc1ccc(CNC(=O)CC2CCN(C(=O)c3[nH]c(C)cc3C)CC2)cc1 |
| 721 | CCN1C(=O)c2cccnc2Sc2cc(CNC(=O)c3cccc4[nH]ccc34)ccc21 |
| 690 | CCCNC(=O)C1CCCN(c2ccc(SCC(=O)Nc3ccc(C(F)(F)F)cc3)nn2)C1 (stereo not given) |
| 679 | C=CCNC(=O)C1CCN(C(=O)Nc2ccc(NC(=O)Nc3ccccc3)cc2)CC1 |
| 1110 | CCOc1ccc(-c2nnc(SCC(=O)N3c4ccccc4CC3C)o2)cc1 (stereo not given) |
| 567 | O=c1c2ccccc2nc2n1CCC2O (stereo not given) |
| 1130 | O=C(c1nnc(-c2ccc(S(=O)(=O)N3CCCCC3)cc2)o1)N1CCN(c2ccccc2F)CC1 |
| 527 | O=C(NCCN1CCCCC1)c1nc2ccccn2c1-c1ccsc1 |
| 845 | Cc1cccc(NC(=O)C2CCCN(c3ncnc4c3oc3ccccc34)C2)c1 (stereo not given) |
| 912 | COc1ccc(S(=O)(=O)N2CCC(C(=O)NCCc3csc(-c4ccccc4)n3)CC2)cc1 |
| 645 | O=S(=O)(CCCOc1ccc(F)cc1)NCc1ccccn1 |
| 656 | CCOC(=O)c1ccc(NC(=O)CSc2ccc3nnc(-c4ccccn4)n3n2)cc1 |
| 749 | O=C(NC1CCN(c2cc(-c3cccs3)[nH]n2)CC1)c1ccc(Cl)cc1 |
| 941 | O=c1c2cnc3nc(-c4ccccc4)nn3c2ccn1CCc1c[nH]c2ccc(F)cc12 |
| 921 | CC(C)c1cccc(NC(=O)C2CCN(C(=O)c3ncn4c3COC(c3ccccc3)C4)CC2)c1 (stereo not given) |
| 764 | O=C(c1ccc(F)cc1)N1CCN(c2cc(-c3cccs3)[nH]n2)CC1 |
| 974 | COc1ccccc1Nc1c(-c2ccc(SC)cc2)nc2cnccn12 |

| RP-LC retention time [s] | SMILES |
| --- | --- |
| 1220 | CCc1cccc(NC(=O)Cn2nc(N3CCC(C)CC3)c3ccccc3c2=O)c1 |
| 692 | Cc1ccn2cc(C(=O)N3CCN(c4cccc(Cl)c4)CC3)nc2c1 |
| 711 | O=C(Cc1cccs1)NCc1nnnn1-c1ccc(F)c(F)c1 |
| 594 | O=C(NCCc1ccccn1)C1CCN(c2cnn(Cc3ccccc3)c(=O)c2)CC1 |
| 916 | CCc1cccc(NC(=O)CN2C(=O)CCCc3cc(S(=O)(=O)N4CCCC4)ccc32)c1 |
| 705 | CCC1CCCCN1C(=O)c1cnc2nc(C)ccc2c1Nc1cc(F)ccc1C (stereo not given) |
| 644 | Cn1cccc(C(=O)NCCCn2cccc2)c1=O |
| 974 | O=C(NCc1cccc(Cl)c1)c1cc(C2CC2)n2nccc2n1 |
| 581 | O=C(O)C1CCN(C(=O)Cc2n[nH]c(=O)c3ccccc23)CC1 |
| 1030 | COc1ccc(Cl)cc1-c1nc(C2CC(=O)N(c3ccc(F)cc3)C2)no1 (stereo not given) |
| 923 | Cc1ccc(NC(=O)N2CCC(CCNC(=O)C3(c4ccccc4)CC3)CC2)cc1 |
| 1280 | Cn1nccc1-c1cccc(-c2noc(-c3ccc(F)c(Cl)c3)n2)c1 |
| 1090 | O=C(Nc1ccc(OC(F)(F)F)cc1)C1CCCN(c2ccc(=O)n(-c3cccc(Cl)c3)n2)C1 (stereo not given) |
| 752 | COc1ccccc1C(=O)N1CCC2(CC1)NC(=O)c1cc(F)ccc1N2C |
| 784 | COc1ccc(Cl)cc1NC(=O)C1CCN(C(=O)c2cccn2-c2cccnc2)CC1 |
| 689 | CC(=O)c1ccc(NC(=O)Cn2c(-c3cccnc3)nc3ccccc32)cc1 |
| 766 | O=C(Cc1ccsc1)NCCC1CCN(C(=O)Nc2ccc(F)cc2F)CC1 |
| 666 | O=C1NC(C(=O)Nc2ccc(F)cc2)Cn2cccc21 (stereo not given) |
| 628 | O=C(CCCCCCC(=O)Nc1ccc(F)cc1)NO |
| 1040 | CCCn1c(=O)sc2cc(S(=O)(=O)N3CCC(C(=O)Nc4ccc(Cl)cc4)CC3)ccc21 |
| 606 | Cc1ccc2c(Nc3cccc(Cl)c3)c(C(=O)N3CCOCC3)cnc2n1 |
